In patent US20250270170A1, “2,3-DIMETHOXY-5-METHYL-1,4-BENZOQUINONE ALKYL ALCOHOL DERIVATIVE AND USE THEREOF” (BEIJING ANJIANXI BIO-MEDICAL TECHNOLOGY CO., LTD., priority 2021, published 2025):
Where “and” joins values, the source holds several entries; their conditions need not be identical. Equal entries are not always repeated. Marks after values point to notes of the source that are not given here.

Tests used:
[1] = system: human gastric cancer NCI-N87 transplanted tumor; experiment: Example 3: tumor growth in NCI-N87 transplanted tumor model in nude mice; type: in vivo, BALB/c nude mice
Method: Female BALB/c nude mice (age: 6 to 7 weeks) were purchased from Beijing Vital River Laboratory Animal Technology Co., Ltd. The mice were raised in an SPF animal room at a temperature of 20 to 25° C., a relative humidity of 40% to 70%, and a cycle of 12 hours of light and 12 hours of dark. The animals had free access to water and food. After about 1 week of normal feeding, mice with good physical condition after the veterinary examination were selected for this assay. Before grouping, a marker was used to mark on the base of the animals' tail. After grouping, each animal was marked with an ear cutout.
The solution was prepared before each administration. An appropriate amount of DDP was weighed and put into a glass bottle. Then, an appropriate volume of physiological saline was added to the bottle, and vortexed (may be heated in a water bath to 50 to 60° C.) to completely dissolve the drug.
An appropriate amount of the compound was weighed and added to an appropriate volume of dimethylacetamide (DMA). The mixture was vortexed to prepare a stock solution (8 mg·mL^−1). The stock solution was prepared once a week, divided into packages and then stored in a 2 to 8° C. refrigerator. One tube was taken out before each administration, and an appropriate volume of 30% Solutol and PEG400 was added while vortexing. The mixture was vortexed and mixed well. Then, an appropriate volume of physiological saline was added, and mixed well to give an administration formulation with a concentration of 0.4 mg·mL^−1, in which the volume ratio of DMA: 30% Solutol: PEG 400: physiological saline was 5:20:20:55.
Human gastric cancer cells NCI-N87 were obtained from the Cell Bank of the Type Culture Collection Committee of Chinese Academy of Sciences (cryopreserved in liquid nitrogen in the laboratory).
NCI-N87 cells were routinely cultured in a RPMI-1640 culture medium containing 10% fetal bovine serum under culture conditions of 37° C. and 5% CO2. The cells were digested with 0.25% trypsin, and passaged according to the cell growth conditions with a passaging ratio of 1:3 to 1:5.
The NCI-N87 cells in the logarithmic growth phase were collected, counted and resuspended in a serum-free RPMI-1640 medium, and the cell concentration was adjusted to 5×10^7 cells/mL. The cells were pipetted with a pipette to disperse them evenly, and the cells were put into a 50-mL centrifuge tube, which was placed in an ice box. A 1-mL syringe was used to draw the cell suspension, which was injected subcutaneously into the axilla of the front right limb of a nude mouse. Each animal was inoculated with 100 μL (5×10^6 cells/mouse) to establish an NCI-N87 transplanted tumor model in nude mice. After the inoculation, the animal status and tumor growth were regularly observed, and the tumor diameter was measured using an electronic vernier caliper. The data were input into an Excel spreadsheet to calculate the tumor volume. When the tumor volume reached 100 to 300 mm^3, 72 animals in good health and with similar tumor volumes were selected and divided into 9 groups (n=8) using randomized block method. The day of grouping was regarded as the first day of the assay (D1). After the start of the assay, the tumor diameter was measured twice a week, the tumor volume was calculated, and the animal body weight was also weighed and recorded.
The calculation formula of tumor volume (TV) is as follows: […]
wherein l represents the long diameter of a tumor (mm); and w represents the short diameter of a tumor (mm).
On the last day of the assay (D44), the animals were anesthetized using CO2 inhalation 1 hour after administration (R01) and sacrificed, and tumor tissues were collected, weighed, and photographed.
The calculation formula of tumor growth inhibition rate TGI (%) is: […]

[2] = Example 7: serum UREA content; type: in vivo, nude mice
[3] = Example 9: serum urea nitrogen (BUN) at the end of the assay; type: in vivo, nude mice
Method: On the last day of the assay, CO2 inhalation anesthesia was used on the animals 1 hour after the administration (R01). Blood was collected through the heart, and a part of the whole blood was added with EDTA-K2 for anticoagulation. The plasma was separated by centrifugation at 4° C. and 1500 g for 10 minutes. The plasma was collected, and stored in a −40° C. to −20° C. freezer (if necessary, it can be used for the determination of the plasma drug concentration). No anticoagulant was added to the other part of the whole blood, and the serum was separated by centrifugation after the blood coagulated, which was used for the detection of blood urea nitrogen. After the blood collection, the tumor tissue was collected, weighed and photographed. Then, the tumor was divided into two parts, quickly cryopreserved by liquid nitrogen, and transferred to a −90° C. to −60° C. freezer for storage. Bilateral kidneys were collected and fixed in 10% formalin.

[4] = D16, DDP 4/4/5/5 mg/kg i.p. QW×4
[5] = D20, DDP 4/4/5/5 mg/kg i.p. QW×4
[6] = D23, DDP 4/4/5/5 mg/kg i.p. QW×4
[7] = D27, DDP 4/4/5/5 mg/kg i.p. QW×4
[8] = D30, DDP 4/4/5/5 mg/kg i.p. QW×4
[9] = D34, DDP 4/4/5/5 mg/kg i.p. QW×4
[10] = D37, DDP 4/4/5/5 mg/kg i.p. QW×4
[11] = D44, DDP 4/4/5/5 mg/kg i.p. QW×4

N.N.[Cl][Pt][Cl] [DDP, cisplatin]
Mean tumor volume ([1]; D13, DDP 4/4/5/5 mg/kg i.p. QW×4): 141 ± 9 mm^3 | Mean tumor volume [1, 4]: 194 ± 18 mm^3 | tumor growth inhibition rate [1, 4]: (36%) | Mean tumor volume [1, 5]: 245 ± 22 mm^3 | tumor growth inhibition rate [1, 5]: (37%) | Mean tumor volume [1, 6]: 276 ± 28* mm^3 | tumor growth inhibition rate [1, 6]: (43%) | Mean tumor volume [1, 7]: 351 ± 22** mm^3 | tumor growth inhibition rate [1, 7]: (46%) | Mean tumor volume [1, 8]: 413 ± 27** mm^3 | tumor growth inhibition rate [1, 8]: (51%) | Mean tumor volume [1, 9]: 492 ± 33** mm^3 | tumor growth inhibition rate [1, 9]: (54%) | Mean tumor volume [1, 10]: 580 ± 47** mm^3 | tumor growth inhibition rate [1, 10]: (55%) | Mean tumor volume [1, 11]: 684 ± 45** mm^3 | tumor growth inhibition rate [1, 11]: (56%) | Serum UREA content, Mean ([2]; DDP 4/2/1/4 mg/kg IP): 10.28 mmol serum^−1 | Serum UREA content, individual animals No1-No6 ([2]; DDP 4/2/1/4 mg/kg IP): 8.06 mmol serum^−1 and 12.81 mmol serum^−1 and 15.45 mmol serum^−1 and 8.28 mmol serum^−1 and 10.47 mmol serum^−1 and 6.62 mmol serum^−1 | BUN (mmol/L) Mean ± SE ([3]; serum, end of assay, A549 model, group B, DDP 4 mg/kg i.p. QW × 4): 21.17 ± 1.43 mmol/L | BUN (mmol/L) Mean ± SE ([3]; serum, end of assay, A549 model, group C, DDP 5/7/7/7 mg/kg i.p. QW × 4): 28.56 ± 1.79 mmol/L

COC1=C(OC)C(=O)C(CCCCCCCCCCOC(=O)Cc2c(C)n(C(=O)c3ccc(Cl)cc3)c3ccc(OC)cc23)=C(C)C1=O [compound of formula (I)]
Mean tumor volume ([1]; D13, 2 mg/kg i.g. BID×28): 141 ± 9 mm^3 | Mean tumor volume ([1]; D13, 6 mg/kg i.g. BID×28): 140 ± 8 mm^3 | Mean tumor volume ([1]; D13, 18 mg/kg i.g. BID×28): 134 ± 8 mm^3 | Mean tumor volume ([1]; D16, 2 mg/kg i.g. BID×28): 180 ± 17 mm^3 | tumor growth inhibition rate ([1]; D16, 2 mg/kg i.g. BID×28): (52%) | Mean tumor volume ([1]; D16, 6 mg/kg i.g. BID×28): 183 ± 10 mm^3 | tumor growth inhibition rate ([1]; D16, 6 mg/kg i.g. BID×28): (48%) | Mean tumor volume ([1]; D16, 18 mg/kg i.g. BID×28): 175 ± 19 mm^3 | tumor growth inhibition rate ([1]; D16, 18 mg/kg i.g. BID×28): (50%) | Mean tumor volume ([1]; D20, 2 mg/kg i.g. BID×28): 218 ± 17** mm^3 | tumor growth inhibition rate ([1]; D20, 2 mg/kg i.g. BID×28): (53%) | Mean tumor volume ([1]; D20, 6 mg/kg i.g. BID×28): 220 ± 11** mm^3 | tumor growth inhibition rate ([1]; D20, 6 mg/kg i.g. BID×28): (51%) | Mean tumor volume ([1]; D20, 18 mg/kg i.g. BID×28): 209 ± 27* mm^3 | tumor growth inhibition rate ([1]; D20, 18 mg/kg i.g. BID×28): (54%) | Mean tumor volume ([1]; D23, 2 mg/kg i.g. BID×28): 253 ± 24** mm^3 | tumor growth inhibition rate ([1]; D23, 2 mg/kg i.g. BID×28): (53%) | Mean tumor volume ([1]; D23, 6 mg/kg i.g. BID×28): 255 ± 16** mm^3 | tumor growth inhibition rate ([1]; D23, 6 mg/kg i.g. BID×28): (52%) | Mean tumor volume ([1]; D23, 18 mg/kg i.g. BID×28): 245 ± 36* mm^3 | tumor growth inhibition rate ([1]; D23, 18 mg/kg i.g. BID×28): (54%) | Mean tumor volume ([1]; D27, 2 mg/kg i.g. BID×28): 294 ± 30** mm^3 | tumor growth inhibition rate ([1]; D27, 2 mg/kg i.g. BID×28): (60%) | Mean tumor volume ([1]; D27, 6 mg/kg i.g. BID×28): 302 ± 24** mm^3 | tumor growth inhibition rate ([1]; D27, 6 mg/kg i.g. BID×28): (58%) | Mean tumor volume ([1]; D27, 18 mg/kg i.g. BID×28): 297 ± 48** mm^3 | tumor growth inhibition rate ([1]; D27, 18 mg/kg i.g. BID×28): (58%) | Mean tumor volume ([1]; D30, 2 mg/kg i.g. BID×28): 332 ± 32** mm^3 | tumor growth inhibition rate ([1]; D30, 2 mg/kg i.g. BID×28): (65%) | Mean tumor volume ([1]; D30, 6 mg/kg i.g. BID×28): 348 ± 31** mm^3 | tumor growth inhibition rate ([1]; D30, 6 mg/kg i.g. BID×28): (62%) | Mean tumor volume ([1]; D30, 18 mg/kg i.g. BID×28): 354 ± 64** mm^3 | tumor growth inhibition rate ([1]; D30, 18 mg/kg i.g. BID×28): (60%) | Mean tumor volume ([1]; D34, 2 mg/kg i.g. BID×28): 370 ± 41** mm^3 | tumor growth inhibition rate ([1]; D34, 2 mg/kg i.g. BID×28): (70%) | Mean tumor volume ([1]; D34, 6 mg/kg i.g. BID×28): 412 ± 37** mm^3 | tumor growth inhibition rate ([1]; D34, 6 mg/kg i.g. BID×28): (64%) | Mean tumor volume ([1]; D34, 18 mg/kg i.g. BID×28): 444 ± 79** mm^3 | tumor growth inhibition rate ([1]; D34, 18 mg/kg i.g. BID×28): (59%) | Mean tumor volume ([1]; D37, 2 mg/kg i.g. BID×28): 450 ± 46** mm^3 | tumor growth inhibition rate ([1]; D37, 2 mg/kg i.g. BID×28): (68%) | Mean tumor volume ([1]; D37, 6 mg/kg i.g. BID×28): 508 ± 38** mm^3 | tumor growth inhibition rate ([1]; D37, 6 mg/kg i.g. BID×28): (62%) | Mean tumor volume ([1]; D37, 18 mg/kg i.g. BID×28): 492 ± 87** mm^3 | tumor growth inhibition rate ([1]; D37, 18 mg/kg i.g. BID×28): (64%) | Mean tumor volume ([1]; D44, 2 mg/kg i.g. BID×28): 536 ± 52** mm^3 | tumor growth inhibition rate ([1]; D44, 2 mg/kg i.g. BID×28): (68%) | Mean tumor volume ([1]; D44, 6 mg/kg i.g. BID×28): 595 ± 57** mm^3 | tumor growth inhibition rate ([1]; D44, 6 mg/kg i.g. BID×28): (63%) | Mean tumor volume ([1]; D44, 18 mg/kg i.g. BID×28): 590 ± 113** mm^3 | tumor growth inhibition rate ([1]; D44, 18 mg/kg i.g. BID×28): (63%) | anti-tumor effect compared with cisplatin ([1]; NCI-N87 transplanted tumor model, summary of Table 5): better anti-tumor effect | Serum UREA content, Mean ([2]; mouse, in vivo, po, 16 mg/kg): 7.83 mmol serum^−1 | BUN (mmol/L) Mean ± SE ([3]; mouse, in vivo, 18 mg/kg): 22.51 ± 1.24 mmol/L | BUN (mmol/L) Mean ± SE ([3]; mouse, in vivo, 36 mg/kg): 22.69 ± 1.17 mmol/L
